The target in data set [1] is T1, Progesterone receptor (Bos taurus, UniProt Q690N0).
T1 sequence (Q690N0 whole entry): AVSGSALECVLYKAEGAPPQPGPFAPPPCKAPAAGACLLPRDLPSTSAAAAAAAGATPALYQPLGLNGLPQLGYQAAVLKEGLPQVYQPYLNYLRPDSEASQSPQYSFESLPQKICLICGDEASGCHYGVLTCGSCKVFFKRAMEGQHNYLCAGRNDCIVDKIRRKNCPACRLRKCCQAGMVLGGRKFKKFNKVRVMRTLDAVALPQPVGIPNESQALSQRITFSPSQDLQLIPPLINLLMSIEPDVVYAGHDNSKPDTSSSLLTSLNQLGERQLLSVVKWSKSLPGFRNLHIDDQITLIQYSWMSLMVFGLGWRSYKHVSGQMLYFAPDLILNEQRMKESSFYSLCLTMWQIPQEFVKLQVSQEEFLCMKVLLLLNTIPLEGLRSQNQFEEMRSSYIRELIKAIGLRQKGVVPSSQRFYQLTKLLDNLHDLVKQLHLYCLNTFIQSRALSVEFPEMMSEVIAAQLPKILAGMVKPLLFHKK
The data set is described as follows: DRUGMATRIX: Progesterone radioligand binding (ligand: [3H] R-5020). The data set is classed as tissue-based, Uterus. The settings on record: Not Active = under 50% inhibition at 10 µM.

In data set [2] the target is D(1A) dopamine receptor (Homo sapiens, UniProt P21728). Kind of data set: DRUGMATRIX: Dopamine D1 radioligand binding (ligand: [3H] SCH-23390). In kind it is cell membranes, CHO, Membrane. Particulars: cho; Not Active = under 50% inhibition at 10 µM.
Chain of D(1A) dopamine receptor (P21728 whole entry): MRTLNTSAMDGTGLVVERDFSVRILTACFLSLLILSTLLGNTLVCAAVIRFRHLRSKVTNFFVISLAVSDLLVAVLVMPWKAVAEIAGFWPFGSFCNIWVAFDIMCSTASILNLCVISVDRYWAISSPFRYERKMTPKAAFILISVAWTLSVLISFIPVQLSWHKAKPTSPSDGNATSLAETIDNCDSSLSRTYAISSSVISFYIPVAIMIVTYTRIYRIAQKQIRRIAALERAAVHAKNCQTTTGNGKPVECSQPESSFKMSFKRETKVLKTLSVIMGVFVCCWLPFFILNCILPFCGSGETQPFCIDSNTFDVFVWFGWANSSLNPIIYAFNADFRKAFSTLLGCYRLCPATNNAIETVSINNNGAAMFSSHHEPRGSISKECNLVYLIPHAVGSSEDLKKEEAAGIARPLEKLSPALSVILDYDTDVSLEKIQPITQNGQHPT
The target of data set [3] is Cytochrome P450 2C19 (Homo sapiens, UniProt P33261). The settings on record: bti-tn-5b1-4. Also: in other assays of this panel Not Active means under 50% inhibition at 10 µM.
Chain of Cytochrome P450 2C19 (P33261 whole entry): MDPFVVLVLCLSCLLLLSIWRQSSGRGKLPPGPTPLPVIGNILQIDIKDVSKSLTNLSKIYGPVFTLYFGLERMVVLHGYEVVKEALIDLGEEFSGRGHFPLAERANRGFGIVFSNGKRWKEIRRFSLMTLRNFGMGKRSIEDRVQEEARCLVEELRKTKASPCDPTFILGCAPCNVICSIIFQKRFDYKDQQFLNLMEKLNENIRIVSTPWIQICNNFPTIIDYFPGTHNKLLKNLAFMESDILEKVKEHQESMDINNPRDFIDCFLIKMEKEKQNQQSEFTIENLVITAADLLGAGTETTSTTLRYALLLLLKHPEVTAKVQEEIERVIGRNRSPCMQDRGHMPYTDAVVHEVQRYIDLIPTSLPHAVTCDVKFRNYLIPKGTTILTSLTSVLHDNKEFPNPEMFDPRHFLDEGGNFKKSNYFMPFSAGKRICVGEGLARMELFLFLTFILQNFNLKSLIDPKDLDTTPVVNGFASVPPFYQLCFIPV
Data set [4] addresses Cytochrome P450 2D6 (Homo sapiens, UniProt P10635). Particulars: bti-tn-5b1-4.
For data set [5], the target named is T2, Glucocorticoid receptor (Homo sapiens, UniProt P04150). Also: in other assays of this panel Not Active means under 50% inhibition at 10 µM.
T2 sequence (P04150 whole entry): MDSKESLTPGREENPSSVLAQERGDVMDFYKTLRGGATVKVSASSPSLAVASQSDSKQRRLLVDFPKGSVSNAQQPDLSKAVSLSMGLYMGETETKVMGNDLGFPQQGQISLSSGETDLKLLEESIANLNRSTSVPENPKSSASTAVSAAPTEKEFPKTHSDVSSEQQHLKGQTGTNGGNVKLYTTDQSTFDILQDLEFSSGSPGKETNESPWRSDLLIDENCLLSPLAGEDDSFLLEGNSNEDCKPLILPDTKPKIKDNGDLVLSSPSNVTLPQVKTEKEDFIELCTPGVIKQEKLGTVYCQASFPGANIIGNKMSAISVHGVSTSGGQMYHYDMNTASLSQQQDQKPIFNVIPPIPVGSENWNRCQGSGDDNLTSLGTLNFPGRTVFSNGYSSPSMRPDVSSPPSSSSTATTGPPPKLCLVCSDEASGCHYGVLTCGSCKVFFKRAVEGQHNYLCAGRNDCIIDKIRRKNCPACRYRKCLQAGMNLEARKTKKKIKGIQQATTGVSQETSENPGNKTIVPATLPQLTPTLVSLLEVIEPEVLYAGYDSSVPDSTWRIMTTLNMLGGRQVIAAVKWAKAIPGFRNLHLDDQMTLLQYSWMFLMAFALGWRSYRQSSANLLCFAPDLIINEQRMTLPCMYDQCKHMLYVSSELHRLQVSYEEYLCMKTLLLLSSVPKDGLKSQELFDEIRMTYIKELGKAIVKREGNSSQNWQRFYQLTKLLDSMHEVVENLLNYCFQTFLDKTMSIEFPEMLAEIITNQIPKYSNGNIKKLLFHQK
Particulars: hela s3.

Data set [6] addresses 5-hydroxytryptamine receptor 2B (Homo sapiens, UniProt P41595). The data set is classed as cell membranes, CHO-K1, Membrane.
Data set [7] deals with T3, Cytochrome P450 1A2 (Homo sapiens, UniProt P05177).
T3 sequence (P05177 whole entry): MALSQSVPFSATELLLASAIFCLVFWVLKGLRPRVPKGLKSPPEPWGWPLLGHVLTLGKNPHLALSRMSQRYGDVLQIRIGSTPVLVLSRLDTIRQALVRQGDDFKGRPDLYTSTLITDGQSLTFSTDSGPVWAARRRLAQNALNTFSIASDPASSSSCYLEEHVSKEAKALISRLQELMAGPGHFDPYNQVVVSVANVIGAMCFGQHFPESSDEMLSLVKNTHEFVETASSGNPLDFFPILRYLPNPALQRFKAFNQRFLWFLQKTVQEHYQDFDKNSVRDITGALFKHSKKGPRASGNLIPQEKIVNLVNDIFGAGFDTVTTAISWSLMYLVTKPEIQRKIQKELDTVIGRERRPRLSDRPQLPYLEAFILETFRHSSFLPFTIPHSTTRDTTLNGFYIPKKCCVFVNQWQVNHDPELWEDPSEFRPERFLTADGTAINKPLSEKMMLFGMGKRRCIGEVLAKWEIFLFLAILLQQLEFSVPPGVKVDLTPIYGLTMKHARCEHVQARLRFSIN
The settings on record: bti-tn-5b1-4.

The target of data set [8] is Cytochrome P450 3A4 (Homo sapiens, UniProt P08684). Particulars: bti-tn-5b1-4. Also: in other assays of this panel Not Active means under 50% inhibition at 10 µM.
Chain of Cytochrome P450 3A4 (P08684 whole entry): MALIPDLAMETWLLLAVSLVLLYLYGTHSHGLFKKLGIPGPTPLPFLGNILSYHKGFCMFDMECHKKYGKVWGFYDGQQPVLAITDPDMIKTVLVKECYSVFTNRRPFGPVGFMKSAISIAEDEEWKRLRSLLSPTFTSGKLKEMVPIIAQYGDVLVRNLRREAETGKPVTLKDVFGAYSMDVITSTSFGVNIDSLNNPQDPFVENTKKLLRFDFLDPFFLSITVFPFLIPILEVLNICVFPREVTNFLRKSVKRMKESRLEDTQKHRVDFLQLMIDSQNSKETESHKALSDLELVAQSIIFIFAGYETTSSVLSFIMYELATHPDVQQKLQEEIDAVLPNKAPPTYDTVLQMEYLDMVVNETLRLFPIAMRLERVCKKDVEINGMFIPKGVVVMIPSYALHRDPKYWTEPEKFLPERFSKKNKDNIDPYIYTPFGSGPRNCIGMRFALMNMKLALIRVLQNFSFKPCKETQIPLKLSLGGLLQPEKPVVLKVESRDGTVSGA

In general, IC50 refers to the midpoint of a concentration-inhibition curve. What is called Ki is the dissociation constant of the complex between target and ligand, obtained from inhibition or displacement.
For Ki in this document: in other assays of this panel Not Active means under 50% inhibition at 10 µM.

Chain of Cytochrome P450 2D6 (P10635 whole entry): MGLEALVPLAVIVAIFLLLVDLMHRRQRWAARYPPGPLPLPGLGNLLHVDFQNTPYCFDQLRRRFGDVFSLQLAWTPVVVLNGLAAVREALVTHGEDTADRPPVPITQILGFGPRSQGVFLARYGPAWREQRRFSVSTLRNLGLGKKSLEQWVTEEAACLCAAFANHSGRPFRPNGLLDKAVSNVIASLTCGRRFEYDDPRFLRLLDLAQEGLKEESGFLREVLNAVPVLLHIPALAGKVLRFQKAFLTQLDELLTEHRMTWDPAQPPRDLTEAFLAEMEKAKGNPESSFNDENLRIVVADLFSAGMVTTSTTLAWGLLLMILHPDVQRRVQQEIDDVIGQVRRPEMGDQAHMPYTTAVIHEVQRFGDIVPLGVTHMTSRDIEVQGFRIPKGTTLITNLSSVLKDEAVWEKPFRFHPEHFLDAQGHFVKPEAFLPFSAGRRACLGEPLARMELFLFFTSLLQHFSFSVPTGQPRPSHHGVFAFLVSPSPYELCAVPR
Chain of 5-hydroxytryptamine receptor 2B (P41595 whole entry): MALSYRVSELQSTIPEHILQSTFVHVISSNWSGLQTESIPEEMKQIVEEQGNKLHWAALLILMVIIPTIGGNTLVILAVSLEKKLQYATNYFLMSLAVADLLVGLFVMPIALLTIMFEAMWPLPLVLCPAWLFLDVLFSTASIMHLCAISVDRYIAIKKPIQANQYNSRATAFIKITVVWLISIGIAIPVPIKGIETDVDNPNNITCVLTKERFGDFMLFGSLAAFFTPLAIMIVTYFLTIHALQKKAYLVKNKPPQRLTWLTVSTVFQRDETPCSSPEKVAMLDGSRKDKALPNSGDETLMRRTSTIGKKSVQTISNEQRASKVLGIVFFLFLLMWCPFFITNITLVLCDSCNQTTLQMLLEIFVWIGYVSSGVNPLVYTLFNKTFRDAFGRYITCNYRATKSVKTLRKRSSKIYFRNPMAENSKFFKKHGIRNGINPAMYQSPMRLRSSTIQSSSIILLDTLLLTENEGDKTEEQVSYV

Turning to `CC1=C(/C=C/C(C)=C/C=C/C(C)=C/C(=O)O)C(C)(C)CCC1` [TRETINOIN], the IC50 result was “Not Active” in data set [1]; “Not Active” in data set [2]; “Not Active” in data set [3]; “Not Active” in data set [4]; “Not Active” in data set [5]; 358 nM in data set [6] (read-out: IC50). The IC50 entry in data set [7] and in data set [8] was “Not Active” throughout. The Ki result in data set [3] is “Not Active”; in data set [4], “Not Active”; in data set [6] (read-out: Ki) it was 228 nM; in data set [7], “Not Active”; in data set [8] it was “Not Active”.

Consider `Cc1ccc(Cl)c(Nc2ccccc2C(=O)O)c1Cl` [MECLOFENAMIC ACID], for which the half-maximal inhibitory concentration (IC50) entry in data set [1], in data set [2], in data set [3], in data set [4], in data set [5] and in data set [6] (cho-k1) was “Not Active” throughout. Besides, the IC50 result in data set [7] and in data set [8] was “Not Active” in each case. The Ki entry in data set [3], in data set [4], in data set [7] and in data set [8] was “Not Active” throughout.

Take `CN1C(=O)OC(C)(C)C1=O` [TRIMETHADIONE]: the IC50 result in data set [1], in data set [2], in data set [3], in data set [4], in data set [5] and in data set [6] (cho-k1) was “Not Active” throughout. Also, the 50% inhibitory concentration (IC50) entry in data set [7] and in data set [8] was “Not Active” in each case. In addition, the Ki entry in data set [3], in data set [4], in data set [7] and in data set [8] was “Not Active” throughout.

For the molecule `CC1(C)[C@H](C(=O)O)N2C(=O)C[C@H]2S1(=O)=O` [SULBACTAM], the IC50 entry in data set [1], in data set [2], in data set [3], in data set [4], in data set [5] and in data set [6] (cho-k1) was “Not Active” throughout. The IC50 result in data set [7] and in data set [8] was “Not Active” each time. Further, the Ki result in data set [3], in data set [4], in data set [7] and in data set [8] was “Not Active” throughout.

For the origin of these results see ChEMBL document CHEMBL1909046, “DrugMatrix in vitro pharmacology data”.
